Measured values reported in BindingDB's records for patent US20240034727 (Stingray Therapeutics, 2024).

Biological target: T1, Ectonucleotide pyrophosphatase/phosphodiesterase family member 1 (Homo sapiens, UniProt P22413)
T1 sequence (P22413 whole entry): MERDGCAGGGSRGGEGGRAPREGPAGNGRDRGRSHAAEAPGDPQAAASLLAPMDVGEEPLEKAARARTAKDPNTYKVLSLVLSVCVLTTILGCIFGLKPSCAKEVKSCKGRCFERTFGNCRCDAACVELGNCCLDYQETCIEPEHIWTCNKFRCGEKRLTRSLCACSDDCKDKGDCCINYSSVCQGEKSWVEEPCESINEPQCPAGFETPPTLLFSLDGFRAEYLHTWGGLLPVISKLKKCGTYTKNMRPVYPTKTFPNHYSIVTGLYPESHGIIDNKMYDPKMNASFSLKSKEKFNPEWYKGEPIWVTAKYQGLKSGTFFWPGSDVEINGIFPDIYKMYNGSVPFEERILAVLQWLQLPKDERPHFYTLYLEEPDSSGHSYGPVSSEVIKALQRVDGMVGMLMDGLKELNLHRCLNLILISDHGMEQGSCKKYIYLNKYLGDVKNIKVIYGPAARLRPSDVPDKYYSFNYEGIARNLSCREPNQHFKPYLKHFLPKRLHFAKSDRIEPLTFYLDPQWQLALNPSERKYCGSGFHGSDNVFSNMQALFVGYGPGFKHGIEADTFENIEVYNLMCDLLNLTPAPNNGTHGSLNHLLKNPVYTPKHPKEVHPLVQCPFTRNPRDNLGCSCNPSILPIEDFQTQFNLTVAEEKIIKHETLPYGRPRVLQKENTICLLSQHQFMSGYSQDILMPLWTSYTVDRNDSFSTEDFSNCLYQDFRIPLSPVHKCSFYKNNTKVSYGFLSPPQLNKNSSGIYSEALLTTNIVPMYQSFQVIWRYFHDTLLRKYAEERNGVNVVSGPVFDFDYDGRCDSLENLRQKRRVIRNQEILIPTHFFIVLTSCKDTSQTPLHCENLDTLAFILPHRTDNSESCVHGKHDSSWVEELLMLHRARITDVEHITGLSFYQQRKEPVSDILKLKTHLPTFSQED
Assay: ENPP1 Inhibition Assay
Description: Assay Buffer: 1 mM CaCl2), 0.2 mM ZnCl2, 50 mM Tris, pH 9.0. Substrate: 8 mM Thymidine 5′-monophosphate p-nitrophenol ester sodium salt (Sigma Cat #T4510). Enzyme: 5 ng/L Recombinant Human ENPP-1 Protein (R&D Cat #6136-EN-010) in DMSO in 96-well clear assay plates. An eight point serial dilution of drugs was prepared in 10 in assay buffer with the final assay concentrations starting at 10 μM, 3 μM, 1 μM, 0.3 μM and 0 μM. A dilution of DMSO was included as a control. The assay plate was set up as follows with each well in duplicate: 81 μL assay buffer+10 μL ENPP1 inhibitor or DMSO+5 μL Substrate+4 μL Enzyme. Both the enzyme and substrate was added to opposite sides of the well to ensure that there was no interaction until all wells had both components. The plate was then centrifuged gently for 10 seconds, followed by an incubation at 37 C. for 45 minutes. The reaction was quantified by measuring absorbance at 405 nm using the Envision. IC50 values are determined using GraphPad Prism 5 software. The data were entered as an X-Y plot into the software as percent inhibition for each concentration of the drug. The concentration values of the drug were log transformed and the nonlinear regression was carried out using the sigmoidal dose-response (variable slope) option within the GraphPad software to model the data and calculate IC50 values. […]

IC50 [µM] | SMILES
< 0.2 | COc1ccc(NC(=O)CSc2nc(C(=O)O)c[nH]2)cc1Cl [US20240034727, Compound I-35]
> 10 | O=C(CSc1nc(C(=O)O)c[nH]1)NCc1cccc(Cl)c1 [US20240034727, Compound I-21]
